Work on `C#Cc1ccc(-n2c(/C=C/c3cccc4c3OCO4)nc3ncccc3c2=O)cc1` [4o, (E)-2-(2-(benzo[d][1,3]dioxol-4-yl)vinyl)-3-(4-ethynylphenyl)pyrido[2,3-d]pyrimidin-4(3H)-one] yielded a melting point of 125 to 126 °C.
With `C#Cc1ccc(-n2c(/C=C/c3cc(OC)ccc3OC)nc3ncccc3c2=O)cc1` [4n, (E)-2-(2,5-Dimethoxystyryl)-3-(4-ethynylphenyl)pyrido[2,3-d]pyrimidin-4(3H)-one] the melting point was 127 to 128 °C.
Compound `C#Cc1ccc(-n2c(/C=C/c3c[nH]c4ccc(OC)cc34)nc3ncccc3c2=O)cc1` [4v, (E)-3-(4-ethynylphenyl)-2-(2-(5-methoxy-1H-indol-3-yl)vinyl)pyrido[2,3-d]pyrimidin-4(3H)-one] has a melting point of 114 to 115 °C.
With `C#Cc1ccc(-n2c(/C=C/c3ccc4[nH]ccc4c3)nc3ncccc3c2=O)cc1` [4u, (E)-2-(2-(1H-Indol-5-yl)vinyl)-3-(4-ethynylphenyl)pyrido[2,3-d]pyrimidin-4(3H)-one] the melting point was 123 to 124 °C.
`C#Cc1ccc(-n2c(/C=C/c3ccc(OC)c(F)c3)nc3ncccc3c2=O)cc1` [4h, (E)-3-(4-Ethynylphenyl)-2-(3-fluoro-4-methoxystyryl)pyrido[2,3-d]pyrimidin-4(3H)-one] showed a melting point of 124 to 125 °C.
`C#Cc1ccc(-n2c(/C=C/c3ccc(F)c(F)c3)nc3ncccc3c2=O)cc1` [4f, (E)-2-(3,4-Difluorostyryl)-3-(4-ethynylphenyl)pyrido[2,3-d]pyrimidin-4(3H)-one] showed a melting point of 123 to 124 °C.
Work on `C#Cc1ccc(-n2c(/C=C/c3cc(OC)cc(OC)c3)nc3ncccc3c2=O)cc1` [4m, (E)-2-(3,5-Dimethoxystyryl)-3-(4-ethynylphenyl)pyrido[2,3-d]pyrimidin-4(3H)-one] yielded a melting point of 123 to 124 °C.
`C#Cc1ccc(-n2c(/C=C/c3cccc(OC(F)(F)F)c3)nc3ncccc3c2=O)cc1` [4d, (E)-3-(4-Ethynylphenyl)-2-(3-(trifluoromethoxy)styryl)pyrido[2,3-d]pyrimidin-4(3H)-one] showed a melting point of 128 to 129 °C.
Work on `C#Cc1ccc(-n2c(/C=C/c3ccc(F)cc3)nc3ncccc3c2=O)cc1` [4a, (E)-3-(4-Ethynylphenyl)-2-(4-fluorostyryl)pyrido[2,3-d]pyrimidin-4(3H)-one] yielded a melting point of 123 to 124 °C.
For `C#Cc1ccc(-n2c(/C=C/c3c(OC)cc(OC)cc3OC)nc3ncccc3c2=O)cc1` [4r, (E)-3-(4-Ethynylphenyl)-2-(2,4,6-trimethoxystyryl)pyrido[2,3-d]pyrimidin-4(3H)-one], the melting point was 124 to 125 °C.
For `C#Cc1ccc(-n2c(/C=C/c3ccc(O)c(OC)c3)nc3ncccc3c2=O)cc1` [4k, (E)-3-(4-Ethynylphenyl)-2-(4-hydroxy-3-methoxystyryl)pyrido[2,3-d]pyrimidin-4(3H)-one], the melting point was 123 to 124 °C.

Reference: patent US9783537B2, “3-(4-ethylnylphenyl) pyridopyrimidinone compounds and process for preparation thereof useful as potential anticancer agents” (Council of Scientific & Industrial Research, priority 2013, dated 2017)
